Laboratory results: PMC9423655, “Huntington’s disease phenotypes are improved via mTORC1 modulation by small molecule therapy” (PLoS ONE, 2022)

Experiments:
Sestrin2 = tested on: Sestrin2; parameters: method as in PMID 30858438, PMID 30990795; conditions: cited from earlier work
mTORC1 [1] = tested on: mTORC1; parameters: method as in PMID 30858438, PMID 30990795; conditions: cited from earlier work
medial prefrontal cortex = tested on: medial prefrontal cortex; parameters: method as in PMID 30990795; conditions: cited from earlier work
mTORC1 [2] = test: mTORC1 activation (pS6K1 immunoblot) in leucine-starved HEK293T cells; type: cell-based; conditions: HEK293T cells starved of leucine 50 minutes, treatment 10 minutes
Protocol: (§1) All cell lines were cultured in DMEM (Corning, #MT10013CV) supplemented with 10% heat-inactivated FBS (Gibco, #16140–071). All cell lines were maintained at 37°C and 5% CO2. For amino acid starvation, cells were rinsed once with and incubated Amino acid-free RPMI (US Biologicals, #R8999-04A) supplemented with 10% dialyzed FBS (Gibco, #26400044) for 50 min followed by treatment with NV-5297, leucine, or vehicle for 10 minutes. For leucine starvation, cells were rinsed once with and incubated in leucine-free DMEM (AthenaES, #0420) supplemented with 10% dialyzed FBS (Gibco, #26400044) for 50 minuted followed by treatment with NV-5297, leucine, or vehicle for 10 minutes.
(A) Activation of the mTORC1 pathway by NV-5297. […] (B) NV-5297 disrupts Sestrin2/GATOR2 in the in vitro Sesn2/WDR24 protein-protein interaction assay in a dose-dependent manner. […] Representative immunoblots of ^T389pS6K1 and quantification of the normalized level of ^T389pS6K1 from 8 independent experiments (F) show TORC1 activity in unedited HEK-293T cells, HEK-293T cells deficient for Sestrin 1 (Sesn1), 2 (Sesn2) and 3 (Sesn3) (D) or HEK-293T cells deficient for the GATOR1 component Nprl3 (E) after 50 minutes leucine starvation followed by the addition of vehicle, NV-5297 or leucine for 10 minutes. […]

Npr13KO HEK293T cells = test: mTORC1 activation (p70S6K1) in HEK293T cells null for GATOR1 component Nprl3; type: cell-based; conditions: leucine-starved 50 minutes, treatment 10 minutes
Protocol: as §1
(§2) To ascertain if Sestrins and the GATOR pathway are required for NV-5297 activity, we tested mTORC1 activation in cells null for either all three Sestrin isoforms [SesnTKO] or for the GATOR1 component Npr13 [Npr13KO] [44]. […]
(§3) (A) Activation of the mTORC1 pathway by NV-5297. […] Representative immunoblots of ^T389pS6K1 and quantification of the normalized level of ^T389pS6K1 from 8 independent experiments (F) show TORC1 activity in unedited HEK-293T cells, HEK-293T cells deficient for Sestrin 1 (Sesn1), 2 (Sesn2) and 3 (Sesn3) (D) or HEK-293T cells deficient for the GATOR1 component Nprl3 (E) after 50 minutes leucine starvation followed by the addition of vehicle, NV-5297 or leucine for 10 minutes. […]

SesnTKO HEK293T cells = test: mTORC1 activation (p70S6K1) in HEK293T cells null for all three Sestrin isoforms; type: cell-based; conditions: leucine-starved 50 minutes, treatment 10 minutes
Protocol: as §1, §2, §3

[3] = target: T1, Sestrin2/GATOR2 interaction (Homo sapiens, UniProt P58004); test: Intact cells-based Sestrin2/GATOR2 protein-protein interaction assay, Flag-WDR24 293T cells; type: cell-based; conditions: leucine-starved flag-WDR24 HEK-293T cells, 10 minutes, S1C Fig
T1 construct: endogenous in cells; host or cells: Flag-WDR24 293T (HEK293T) cells
T1 sequence (P58004 1-480): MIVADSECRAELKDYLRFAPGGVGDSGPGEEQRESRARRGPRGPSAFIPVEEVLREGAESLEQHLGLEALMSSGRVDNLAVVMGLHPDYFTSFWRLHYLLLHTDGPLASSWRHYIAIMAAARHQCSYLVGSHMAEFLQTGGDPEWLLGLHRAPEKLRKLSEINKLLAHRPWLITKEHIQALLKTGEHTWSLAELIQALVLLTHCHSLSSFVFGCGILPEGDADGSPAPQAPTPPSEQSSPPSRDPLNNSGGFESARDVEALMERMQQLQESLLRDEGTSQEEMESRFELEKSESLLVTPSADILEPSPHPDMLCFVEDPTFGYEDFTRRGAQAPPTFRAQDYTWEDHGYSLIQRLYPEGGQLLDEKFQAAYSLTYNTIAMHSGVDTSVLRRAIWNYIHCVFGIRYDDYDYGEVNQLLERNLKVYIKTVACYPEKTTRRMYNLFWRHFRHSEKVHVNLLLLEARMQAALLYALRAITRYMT
Protocol: Flag-WDR24 293T cells were washed and placed in leucine-free DMEM supplemented 10% dFBS for 50 minutes followed by treatment with NV-5297, leucine or vehicle for 10 minutes. Cells were rinsed once with ice-cold PBS and immediately lysed with Triton lysis buffer (1% Triton, 10 mM β-glycerol phosphate, 10 mM pyrophosphate, 40 mM Hepes pH 7.4, 2.5 mM MgCl2 and 1 tablet of EDTA-free protease inhibitor). The cell lysates were cleared by centrifugation at 13,200 rpm at 4°C in a microcentrifuge for 10 minutes. Prior to immunoprecipitations, an aliquot of lysate was taken for SDS-PAGE and immunoblotting for pS6K1, S6K1 and tubulin. For anti-FLAG immunoprecipitations, the FLAG-M2 affinity gel was washed 3 times with Triton lysis buffer, and 30 μl of a 50/50 slurry of the FLAG-M2 affinity gel was then added to approximately 2 mg of clarified cell lysates and incubated with rotation for 3 hours at 4°C. Following immunoprecipitation, the beads were washed one time with Triton wash buffer containing 500 mM NaCl. Immunoprecipitated proteins were denatured, resolved by SDS-PAGE, and analyzed by immunoblotting.
Next, Sestrin2/GATOR2 protein-protein interactions in response to NV-5297 were measured using cell-free assays and in vitro. For this, HEK293T cells stably expressing flag-WDR24, a component of GATOR2 [44], were used. The cell-free assays utilized Sestrin2/GATOR2 complexes immunoprecipitated from amino acid-starved cells with an anti-flag antibody.

In the case of `CC(C)(C[C@H](N)C(=O)O)C(F)F` [NV-5138], the Sestrin2 binding (Sestrin2) is given as “binds Sestrin2”, the “mTORC1 activation in peripheral tissues and CNS” value (mTORC1 [1]) is given as “transiently activates mTORC1” and the “synaptic formation in the medial prefrontal cortex” value (medial prefrontal cortex) is given as “improved synaptic formation”.

For `CC(C)C[C@H](N)C(=O)O` [leucine, reference compound], the “mTORC1 activation measured by phosphorylated S6K1 (pS6K1 / p70S6K1)” value (mTORC1 [2]) was “activates mTORC1 in leucine-starved HEK293T cells in a dose-dependent manner”, the p70S6K1 levels (Npr13KO HEK293T cells) was “remained unchanged” and the p70S6K1 levels (SesnTKO HEK293T cells) was “remained unchanged”. For the same molecule, the “p70S6K1 (T389 pS6K1) level” value [3] was “Dose-dependent activation of mTORC1”.
